# Experimental data: patent US12493025B2, “Microfluidic device and method of preparing a cell model for disease associated with cancer” (City University of Hong Kong, priority 2020, dated 2025)
# Where two headings read alike, the source gives them in different places.
# Legend:
# [1] = system: uropathogenic E. coli strain UTI89; test: MIC of ciprofloxacin; type: cell-based, Escherichia coli
# [2] = system: UMUC-3 bladder cancer cells; test: Cancer cell viability in clusters co-cultured with UTI89 (CT and CL models), Calcein-AM/Hoechst; doxorubicin dose-response; type: cell-based, human; conditions: for IC50: Homo sapiens, UMUC3, MOI 1:1, concentration giving 50% cell viability
# Description: For CT models, bacterial suspension was centrifuged for 10,000 rpm for 5 min, and the supernatant was removed and replaced with MEM-α (10% supplemented with FBS, no added penicillin-streptomycin) at final dilutions at the rate of 500:1, 100:1, and 1:1 (bacteria:cell). After seeding and incubating for 24 h, the UMUC-3 cell clusters in the microchannels were stained using Hoechst dye for 30 minutes at 37° C. before infection. After original media with dye in channels was gently removed, the diluted bacterial suspension was added into 9 channels separately, three channels per concentration. The corresponding control group of the two models was obtained at time points before the introduction of bacteria.
# As for CL models, bacteria suspended in MEM a and UMUC-3 cells (no added penicillin-streptomycin) were mixed before seeding at the rate of 500:1, 100:1, and 1:1. The device was incubated at 37° C. with 5% CO2 and in situ imaging and analyzing at 1 h, 9 h, and 24 h, respectively. Besides, an isolated channel only with 24 h cultured UMUC-3 was set as a negative control to indicate the beginning of the infection.
# For fluorescent staining analysis, the nuclear dye Hoechst (Life Technologies) and Calcein-AM (Invitrogen) were added into cell suspension in the channel at dilution of 1:1000 (v/v). After incubating for 30 minutes at 37° C. for staining, the media was gently removed from each channel, and the device could be imaged via Nikon Ci-L fluorescent microscope directly at 10× magnification. The images processing and cell counting under fluorescent staining were done through ImageJ software. For infection analysis imaging, after incubating for 30 minutes with fluorescent dyes and remove the mixture of dyes and media in the channel, the channels were washed with 1×PBS to remove unbound bacteria and treated with 100 μg/mL gentamicin for 2 h to kill the extracellular bacteria, then the device could be imaged directly. […]
# [3] = system: UMUC-3 bladder cancer cells; test: Cluster size after DNase treatment of coculture (in situ morphology analysis); type: cell-based, human; conditions: 0.01 mg/mL DNase, 9 h of infection
# Description: The clusters formed in the microwell after 24 h culture or infection were imaged via an optical microscope by the device put on the objective directly at 40× or 100× magnification. Each channel was shot at three frames at the top, middle and bottom state. The image processing and analysis of cluster size and density were done through ImageJ software.
# (§1) To dissolve the biofilm, 1×DNase (0.01 mg/mL; Sigma-Aldrich) diluted with fresh antibiotic-free culture media were added into channels after 1 h infection, and the device was continually incubated at 37° C. for 8 h. Then downstream in situ analysis was done after removing DNase and washing channels with PBS. The untreated clusters after 9 h infection were set as control.
# [4] = system: UMUC-3 bladder cancer cells; test: Viability of non-infected cancer cells after DNase or Cipro treatment; type: cell-based, human; conditions: uninfected control; Cipro 24 h
# [5] = system: UMUC-3 bladder cancer cells; test: In situ immunostaining of CD44 and CD24 after DNase treatment; type: cell-based, human; conditions: CT model, 9 h after infection
# Description: The infected cell clusters were firstly washed with 1×PBS gently and treated with 100 μg/mL gentamicin for 2 h to kill extracellular bacteria but keep the intracellular ones. Then channels were loaded PBS with antibody dyes at dilution of […] (v/v). After incubating for 30 minutes at room temperature for staining, the PBS was gently removed from each channel, and the stained clusters could be directly observed through a fluorescent microscope.
# as §1
molecule,measurement,setting,value
O=C(O)c1cn(C2CC2)c2cc(N3CCNCC3)c(F)cc2c1=O [ciprofloxacin],MIC,"[1]; Escherichia coli, as printed in Example 7",0.025 µg/mL
same,MIC value,[1]; as printed in legend of FIG. 14C,0.025 µg/mL
COc1cccc2c1C(=O)c1c(O)c3c(c(O)c1C2=O)C[C@@](O)(C(=O)CO)C[C@@H]3O[C@H]1C[C@H](N)[C@H](O)[C@H](C)O1 [doxorubicin],IC50,"[2]; CL model (intratumoral UTI89), read-out: IC50 of doxorubicin on cancer cells with the CL model",1590 nM
same,IC50,"[2]; CT model (extratumoral UTI89), read-out: IC50 of doxorubicin on cancer cells with the CT model",1790 nM
DNase,cluster size in the CL model after DNase treatment,[3]; CL model,slight increase in cluster size
same,cluster size in the CT model after DNase treatment,[3]; CT model,reverse the effect of cluster size reduction
same,adverse effect on non-infected cancer cells (viability),[4],neither ciprofloxacin nor DNase had adverse effect
same,"expression intensity of CD24, DNase-treated vs untreated control",[5],reduced
same,"expression intensity of CD44, DNase-treated vs untreated control",[5],reduced
same,cancer cell viability in the CT model after biofilm disruption by DNase,"[2]; CT model, 9 h infection, more obvious at MOIs 100:1 and 500:1",increased to a level comparable to that in the CL model
